The values that follow are results of earlier work, collected in patent US20040087644A1, “Pharmaceutical composition in capsules that comprises a non-steroidal antiinflamatory and an optiate analgesic for handling pain” (Leopoldo Espinosa Abdala, priority 2002, published 2004).

The conditions of data set [1]: in vivo.
The subject of data set [2] is pain. Conditions: clinical studies, compared with opiates.

Molecules are shown by their SMILES.

For the molecule `O=C(c1ccccc1)c1ccc2n1CCC2C(=O)O` (centres unmarked) [Ketorolac], in data set [1], the “dose excreted through the urine without changes” value was “About 90%”. For the same molecule, the analgesic efficiency entry in data set [2] is on record as “comparable with opiates”.
